Here are results for 29 molecules from EP4596548A1, “NURR1 MODULATORS” (Ludwig-Maximilians-Universität, priority 2024, dated 2025).

Each structure is given as a SMILES string. Values joined by “and” are separate entries in the source; they are usually repeats but may differ in a detail not shown here. Equal entries are not always repeated. “Also recorded” adds a separate entry of the source. Bounds are passed on as bounds.

In data set [1] the target is T1, Nurr1 (Homo sapiens, UniProt P43354). Briefly: Gal4-Nurr1 hybrid reporter gene assay in HEK293T cells. Type of data set: cell-based. On the set-up: expressed in transfected cells; host or cells: HEK293T. The following applies: for EC50: Gal4-Nurr1 hybrid reporter gene assay; for EC50 / max. activation: mean±SD, n≥3; for max. activation: maximum effect vs. 0.1% DMSO control; for EC50(Nurr1) (max. activation): result in words. Here is the method:
Hybrid reporter gene assays. Nurr1 modulation was determined in a Gal4 hybrid reporter gene assay in HEK293T cells (German Collection of Microorganisms and Cell Culture GmbH, DSMZ) using pFR-Luc (Stratagene, La Jolla, CA, USA; reporter), pRL-SV40 (Promega, Madison, WI, USA; internal control) and pFA-CMV-hNurr1-LBD^14, coding for the hinge region and ligand binding domain of the canonical isoform of human Nurr1. […] After 24 h, medium was changed to Opti-MEM without supplements and cells were transiently transfected using Lipofectamine LTX reagent (Invitrogen, Carlsbad, CA, USA) according to the manufacturer's protocol. Five hours after transfection, cells were incubated with the test compounds in Opti-MEM supplemented with penicillin (100 U/mL), streptomycin (100 µg/mL) and 0.1% DMSO for 16 h before luciferase activity was measured using the Dual-Glo Luciferase Assay System (Promega) according to the manufacturer's protocol on a Tecan Spark luminometer (Tecan Deutschland GmbH, Crailsheim, Germany). Firefly luminescence was divided by Renilla luminescence and multiplied by 1000 resulting in relative light units (RLU) to normalize for transfection efficiency and cell growth. Fold activation was obtained by dividing the mean RLU of test compound by the mean RLU of the untreated control. All samples were tested in at least three biologically independent experiments in duplicates. For dose-response curve fitting and calculation of EC50 values, the equation "[Agonist] vs. response -- Variable slope (four parameters)" was used in GraphPad Prism (version 7.00, GraphPad Software, La Jolla, CA, USA). Selectivity profiling was performed with identical procedures using pFA-CMV-Nur77-LBD^14, pFA-CMV-NOR-1-LBD^14, pFA-CMV-THRα-LBD^39, pFA-CMV-RARα-LBD^40, pFA-CMV-PPARα-LBD^41, pFA-CMV-PPARγ-LBD^41, pFA-CMV-PPARδ-LBD^41, pFA-CMV-LXRα-LBD^37, pFA-CMV-FXR-LBD^42 and pFA-CMV-hRXRα-LBD^43.
Target sequence in this assay (P43354 360-595 limits assumed): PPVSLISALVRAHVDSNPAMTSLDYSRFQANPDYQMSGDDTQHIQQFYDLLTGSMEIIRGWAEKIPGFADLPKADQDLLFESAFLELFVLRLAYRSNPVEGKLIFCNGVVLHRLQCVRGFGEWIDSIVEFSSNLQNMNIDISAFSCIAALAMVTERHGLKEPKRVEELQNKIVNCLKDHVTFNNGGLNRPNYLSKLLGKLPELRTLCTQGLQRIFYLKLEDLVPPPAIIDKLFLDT
A general note: A reporter such as luciferase makes a cellular process visible.

The target in data set [2] is T1, Nurr1. Briefly: Ligand efficiency metrics. Particulars: computed according to ref. 29.
Target sequence in this assay (P43354 whole entry, the tested form may be a part, canonical isoform): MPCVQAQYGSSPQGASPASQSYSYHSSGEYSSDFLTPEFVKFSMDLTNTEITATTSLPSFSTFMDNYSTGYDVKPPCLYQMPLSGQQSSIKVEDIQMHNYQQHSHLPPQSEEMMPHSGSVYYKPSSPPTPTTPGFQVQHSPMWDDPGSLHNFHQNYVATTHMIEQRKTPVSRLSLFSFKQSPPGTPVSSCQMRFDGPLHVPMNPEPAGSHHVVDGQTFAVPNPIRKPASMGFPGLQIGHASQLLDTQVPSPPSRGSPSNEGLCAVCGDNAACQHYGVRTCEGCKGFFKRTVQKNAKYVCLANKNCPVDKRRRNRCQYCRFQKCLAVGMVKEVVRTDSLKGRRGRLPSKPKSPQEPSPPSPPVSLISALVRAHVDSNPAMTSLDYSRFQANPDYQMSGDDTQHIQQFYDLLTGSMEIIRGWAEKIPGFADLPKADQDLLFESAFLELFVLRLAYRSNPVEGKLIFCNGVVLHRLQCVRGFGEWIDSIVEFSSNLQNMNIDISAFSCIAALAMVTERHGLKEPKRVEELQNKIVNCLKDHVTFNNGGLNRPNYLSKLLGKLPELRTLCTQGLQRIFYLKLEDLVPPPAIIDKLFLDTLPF
The target in the next data set is T2, Nurr1 LBD (Homo sapiens, UniProt P43354).
T2 construct: Nurr1 LBD protein (10-30 µM, expressed as described previously^21); made in house
T2 sequence (P43354 360-595 limits assumed): as the sequence (P43354 360-595 limits assumed) above
Briefly: Isothermal titration calorimetry (ITC). Type of data set: binding. The following applies: ITC at 25°C. Here is the method: Isothermal Titration Calorimetry (ITC). ITC experiments were conducted on an Affinity ITC instrument (TA Instruments, New Castle, DE) at 25°C with a stirring rate of 75 rpm. Nurr1 LBD protein (10-30 µM, expressed as described previously^21) in buffer (20 mM Tris pH 7.5, 100 mM NaCl, 5% glycerol) containing 1-4% DMSO was titrated with the test compounds (60-150 µM in the same buffer containing 1-4% DMSO) in 26 injections (1x 1 µL, 25x 3-4 µL) with an injection interval of 150 s. As control experiments, the test compounds were titrated to the buffer, and the buffer was titrated to the Nurr1 LBD protein under otherwise identical conditions. Results were analyzed using NanoAnalyze software (version 3.11.0, TA Instruments, New Castle, DE) with independent binding models.
On the technique in general: ITC needs no label: the signal is the heat of the interaction.

What is called EC50 is the concentration that produces a half-maximal response. Low readings indicate higher potency in that assay, high ones lower potency in that assay. As for `Cc1cc(N)c2cccc(Cl)c2n1` [Compound 4, 8-chloro-2-methylquinolin-4-amine], on Nurr1 [1], the EC50 came to 17 ± 6 µM and the max. activation amounted to 1.7±0.1 fold. Besides, at Nurr1 [2], the “ligand efficiency (LE)” value amounted to 0.50, the “lipophilic ligand efficiency (LLE)” value was 1.99 and the “size-independent ligand eff. (SILE)” value was 2.21. In the case of `Cc1nc2cccc(Cl)c2[nH]1` [Compound 7, 4-Chloro-2-methyl-benzimidazole], the “EC50(Nurr1) (max. activation)” value on Nurr1 [1] (at 100 µM) was “failed to activate Nurr1; also recorded: inactive (100 µM)”. As a reminder, the Kd is the free concentration of one partner at which half of the binding sites on the other are occupied at equilibrium, for simple one-to-one binding. `Cc1nc2c(Cl)cccn2c1N` [Compound 8, 8-Chloro-2-methylimidazo[1,2-a]pyridine-3-amine]: on Nurr1 [1], the EC50 was determined as 7 ± 1 µM and the max. activation turned out to be 2.0±0.1 fold. Further, at Nurr1 LBD, the affinity, expressed as Kd, was 2.7 µM. Moreover, on Nurr1 [2], the “ligand efficiency (LE)” value is on record as 0.59, the “lipophilic ligand efficiency (LLE)” value was determined as 3.28 and the “size-independent ligand eff. (SILE)” value stood at 2.45.

As for `Cc1nc2cc(Cl)ccn2c1N` [Compound 9], the “EC50(Nurr1) (max. activation)” value on Nurr1 [1] (at 100 µM) was “inactive (100 µM)”. The same measure, in the same setting: with `Nc1cnc2ccccn12` [Compound 10] the entry was “inactive (100 µM)”. Same read-out and setting: with `Clc1cccn2ccnc12` [Compound 11] the entry was “inactive (100 µM)”; with `Nc1cnc2c(Cl)cccn12` [Compound 12, 3-Amino-8-chloroimidazo[1,2-a]pyridine], “inactive (100 µM)”.

For the molecule `Cc1nc2ccccn2c1N` [Compound 13], the “EC50(Nurr1) (max. activation)” value on Nurr1 [1] (at 100 µM) was “inactive (100 µM)”.

On to `CC(C)c1nc2c(Cl)cccn2c1N` [Compound 14], for which the max. activation on Nurr1 [1] was less than 1.2 fold. For the same molecule, the “EC50(Nurr1) (max. activation)” value at Nurr1 [1] (at 100 µM) is “inactive”. On to `Nc1c(-c2ccccc2)nc2c(Cl)cccn12` [Compound 15], for which the max. activation at Nurr1 [1] is 1.4±0.1 fold. Turning to `Nc1c(-c2ccoc2)nc2c(Cl)cccn12` [Compound 16], at Nurr1 [1], the max. activation is given as less than 1.2 fold. Moreover, the “EC50(Nurr1) (max. activation)” value at Nurr1 [1] (at 100 µM) is “inactive”. On Nurr1 [1], `Nc1c(-c2ccc(Cl)cc2)nc2c(Cl)cccn12` [Compound 17] returned an EC50 of 15 ± 3 µM and a max. activation of 1.7±0.2 fold. `Nc1c(-c2cccc(Cl)c2)nc2c(Cl)cccn12` [Compound 18]: at Nurr1 [1], a half-maximal effect (EC50) was put at 9 ± 3 µM and the max. activation is listed as 1.7±0.1 fold.

Take `Nc1c(-c2ccccc2Cl)nc2c(Cl)cccn12` [Compound 19]: the “EC50(Nurr1) (max. activation)” value at Nurr1 [1] (at 100 µM) was “inactive (100 µM)”. For the molecule `Cc1ccc(-c2nc3c(Cl)cccn3c2N)cc1` [Compound 20], at Nurr1 [1], it took 12 ± 2 µM to reach a half-maximal effect (EC50) and the max. activation was 2.0±0.2 fold. Take `Cc1cccc(-c2nc3c(Cl)cccn3c2N)c1` [Compound 21]: the max. activation at Nurr1 [1] is on record as < 1.2-fold act. For `Nc1c(-c2ccc(C(F)(F)F)cc2)nc2c(Cl)cccn12` [Compound 22], the max. activation at Nurr1 [1] is recorded as < 1.2-fold act. On to `Nc1c(-c2cccc(C(F)(F)F)c2)nc2c(Cl)cccn12` [Compound 23], for which the max. activation on Nurr1 [1] is reported as < 1.2-fold act.

In the case of `Nc1c(-c2ccc(Cl)c(Cl)c2)nc2c(Cl)cccn12` [Compound 24, 8-Chloro-2-(3,4-dichlorophenyl)imidazo[1,2-a]pyridine-3-amine], at Nurr1 [1], the “increase in potency over 8” value amounted to 7 fold; the EC50 is 0.4 µM; the max. activation was 1.8 fold and 1.8±0.1 fold. The same molecule returned a Kd on Nurr1 LBD of 0.7 µM. As for `Cc1ccc(-c2nc3c(Cl)cccn3c2N)cc1C` [Compound 25], on Nurr1 [1], the half-maximal effective concentration (EC50) was found to be 14 ± 2 µM and the max. activation was 1.6±0.1 fold. In the case of `Cc1nc2c(Cl)cccn2c1NC(=O)c1ccc(-c2ccc(Cl)cc2)o1` [Compound 26], at Nurr1 [1], the midpoint of the response, the EC50, lay at 1.6 ± 0.5 µM and the max. activation is 1.8±0.1 fold. This molecule also returned a Kd at Nurr1 LBD of 0.7 µM. At Nurr1 [1], `Cc1nc2c(Cl)cccn2c1NC(=O)c1ccc(-c2ccccc2)o1` [Compound 27] yielded a concentration for a half-maximal effect (EC50) of 4 ± 1 µM and a max. activation of 2.1±0.1 fold. For `Cc1nc2c(Cl)cccn2c1NC(=O)c1ccc(-c2ccccc2)s1` [Compound 28], in that order: 3.2 ± 0.4 µM and 2.1±0.1 fold.

Take `Cc1nc2c(Cl)cccn2c1NC(=O)c1ccc(-c2ccccc2)cc1` [Compound 30]: the “EC50(Nurr1) (max. activation)” value at Nurr1 [1] (at 10 µM) is “inactive (10 µM)”. For `Cc1nc2c(Cl)cccn2c1NC(=O)c1ccc(-c2ccc(C(F)(F)F)cc2)o1` [Compound 31], a half-maximal effect on Nurr1 [1] (EC50) was put at 1.1 ± 0.3 µM. At Nurr1 [1], `Cc1ccc(-c2ccc(C(=O)Nc3c(C)nc4c(Cl)cccn34)o2)cc1` [Compound 32] showed an EC50 of 0.13 ± 0.02 µM and a max. activation of 2.0±0.2 fold. Regarding `Cc1nc2c(Cl)cccn2c1NC(=O)c1ccc(-c2ccc(OC(F)(F)F)cc2)o1` [Compound 33], it took 0.8 ± 0.2 µM to reach a half-maximal effect on Nurr1 [1] (EC50). On to `COc1ccc(-c2ccc(C(=O)Nc3c(C)nc4c(Cl)cccn34)o2)cc1` [Compound 34], for which, at Nurr1 [1], a half-maximal response (EC50) required 0.16 ± 0.06 µM and the max. activation came out at 1.7±0.1 fold.

Take `CNc1ccc(-c2ccc(C(=O)Nc3c(C)nc4c(Cl)cccn34)o2)cc1` [Compound 35]: on Nurr1 [1], the EC50 worked out at 0.3 ± 0.02 µM.
